Assay results from patent US20100190225A1, “D-PSICOSE PRODUCTION METHOD BY D-PSICOSE EPIMERASE” (CJ CHEILJEDANG CORP., priority 2005, published 2010).
Where two headings read alike, the source gives them in different places. Each block holds one molecule with its values, some of them ahead of it.

How the values were obtained:
psicose 3-epimerase [1] = biological target: T1, psicose 3-epimerase (Agrobacterium fabrum, UniProt A9CH28); type: biochemical; conditions: for Relative activity (%): 1 mM metal ion added or EDTA treatment, 1.0% D-fructose, pH 7.5, 50° C., 20 minutes, None = 100; for effect of metal ion on enzyme activity: 1 mM metal ion, in words
T1 construct: made in house; host or cells: Escherichia coli BL21(DE3)
T1 sequence (A9CH28 with tags, fused parts or gaps): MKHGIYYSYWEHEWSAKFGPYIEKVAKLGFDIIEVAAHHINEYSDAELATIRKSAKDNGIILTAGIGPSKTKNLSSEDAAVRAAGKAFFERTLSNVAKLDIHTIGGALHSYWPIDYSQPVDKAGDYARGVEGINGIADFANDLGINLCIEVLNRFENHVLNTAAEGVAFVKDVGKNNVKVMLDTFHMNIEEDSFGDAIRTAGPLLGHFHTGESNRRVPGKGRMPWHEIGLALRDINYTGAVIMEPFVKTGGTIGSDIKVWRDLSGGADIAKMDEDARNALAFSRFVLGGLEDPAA

psicose 3-epimerase [2] = biological target: T1, psicose 3-epimerase; experiment: Substrate specificity of psicose 3-epimerase; type: biochemical; conditions: for Relative activity (%) No metal ion added / Relative activity (%) Mn^2+ added: 10 mM monosaccharide as substrate, pH 7.5, 50° C., 20 minutes
Experimental: In the current Experimental Example, MALDI-TOF-MS was used for the measurement of the molecular weight of psicose 3-epimerase, and cinnamic acid was used as a matrix. The enzyme activity was measured by using D-fructose as a substrate. For the measurement of the enzyme activity, psicose 3-epimerase was allowed to react with D-fructose in a 50 mM PIPES buffer solution containing 1.0% of D-fructose, at pH 7.5 and at 50° C. for 20 minutes, and then the reaction solution was heated at 100° C. for 5 minutes to terminate the reaction. The PIPES buffer solution containing D-fructose was prepared by dissolving D-fructose in PIPES buffer solution at pH 7 to 8 to a concentration of 60 to 70% by weight, and the PIPES buffer solution containing D-fructose was continuously added to a bioreactor maintained at 40 to 60° C. For the purpose of easy comparison of the enzyme activity, one unit of psicose 3-epimerase is defined as the amount of the psicose 3-epimerase needed to produce […] of D-psicose per one minute at pH 7.5 and at 50° C.
The concentrations of D-fructose, D-psicose, D-sorbose, D-tagatose, D-xylulose and D-ribulose were measured using a high pressure liquid chromatography system with a BP-100 calcium ion […] column and an RI detector. The column was conditioned to allow a flow of distilled water at a rate of 0.5 ml/min at 80° C.
Reaction of the psicose 3-epimerase was performed in a 50 mM PIPES buffer solution containing 0.04 units/ml of the psicose 3-epimerase and 10 mM each individually of the monosaccharides indicated in Table 2 below, at pH 7.5 and at 50° C. for 20 minutes, and then each of the reaction solutions were heated at 100° C. for 5 minutes to terminate the reaction. Then, the enzyme activity of the psicose 3-epimerase of each reaction solution was measured.

[3] = in words; cited from earlier work
lipogenic enzymes = conditions: dietary, in words; cited from earlier work
[4] = Equilibrium between D-psicose and D-fructose achieved by psicose 3-epimerase; type: biochemical
Experimental: In Example 6, the reaction of the psicose 3-epimerase was performed in a 50 mM PIPES buffer solution containing 0.04 units of psicose 3-epimerase/ml, 1 mM of Mn^2+ ions, and 0.1% of D-psicose and D-fructose together, at pH 7.0 and at temperatures ranging from 30° C. to 60° C. for 24 hours to allow the reaction to proceed sufficiently, in order to determine the equilibrium between D-psicose and D-fructose. Then, the reactions were terminated by heating the reaction solution at 100° C. for 5 minutes, and the enzyme activity was measured.
As a result, the reaction was started with 5 initial ratios of D-psicose to D-fructose, of 0:100, 25:75, 50:50, 75:25, and 100:0, and the final ratios of D-psicose to D-fructose were determined after 24 hours of the reaction, as shown in FIG. 2. Referring to FIG. 2, the ratio of D-psicose to D-fructose was 32:68 at 30° C., while the same ratio was 37:63 at 60° C.

[5] = Activity of psicose 3-epimerase according to pH and temperature changes; type: biochemical
Experimental: In Example 5, the psicose 3-epimerase was reacted with D-fructose at various pH values and temperatures, and the enzyme activities obtained at the various pH values and temperatures were compared. In order to investigate the pH effect, the reaction of the psicose 3-epimerase was performed in a 50 mM PIPES buffer solution containing 0.04 units of psicose 3-epimerase/ml and 1.0% of D-fructose at pH values ranging from 6.5 to 7.5, and the same reaction was performed in a 50 mM EPPS buffer solution containing 0.04 units of psicose 3-epimerase/ml and 1.0% of D-fructose at pH values ranging from 7.5 to 8.5. Here, the respective reactions were performed at 50° C. when metal ions were not added, and at 60° C. when Mn ions were added, respectively for 20 minutes. Then, the reactions were terminated by heating the reaction solutions at 100° C. for 5 minutes, and the enzyme activities were measured. The results are illustrated in FIG. 1A.
In order to investigate the temperature effect, the reaction was performed in a 50 mM PIPES buffer solution containing 0.04 units of psicose 3-epimerase/ml and 1.0% of D-fructose at temperatures ranging from 30° C. to 70° C. for 20 minutes, at pH 7.5 when metal ions were not added, and at pH 7.0 when Mn ions were added. The reactions were terminated by heating the reaction solution at 100° C. for 5 minutes, and the enzyme activities were measured. The results are illustrated in FIG. 1B.

[6] = D-psicose production by free psicose 3-epimerase; type: biochemical; conditions: 700 g/L D-fructose; for D-Psicose: 14 units/ml, 1 mM Mn^2+, pH 7.0, 60° C.
Experimental: In order to produce D-psicose at high concentrations, the reaction was performed in a 50 mM PIPES buffer solution containing 14 units of psicose 3-epimerase/ml, 1 mM of Mn^2+ ions, and 700 g/L of D-fructose, at pH 7.0 and at 60° C. for various reaction times. Then, the reaction was terminated by heating the reaction solution at 100° C. for 5 minutes, and the enzyme activity was measured.

Molecule: [Ba+2] [Ba^2+]
Relative activity (%) (psicose 3-epimerase [1]): 95.6%

Molecule: [Ca+2] [Ca^2+]
Relative activity (%) (psicose 3-epimerase [1]): 64.4%

Molecule: O=C(CO)[C@@H](O)[C@H](O)[C@H](O)COP(=O)(O)O [D-Fructose-6-phosphate]
Relative activity (%) No metal ion added (psicose 3-epimerase [2]): 0.0%
Relative activity (%) Mn^2+ added (psicose 3-epimerase [2]): 0.0%

Molecule: [Cu+2] [Cu^2+]
Relative activity (%) (psicose 3-epimerase [1]): 2.2%
effect of metal ion on enzyme activity (psicose 3-epimerase [1]): suppressed the enzyme activity

Molecule: [Co+2] [Co^2+]
Relative activity (%) (psicose 3-epimerase [1]): 268%
effect of metal ion on enzyme activity (psicose 3-epimerase [1]): enhanced the enzyme activity

Molecule: O=C(CO)[C@H](O)[C@H](O)CO [D-Ribulose]
Relative activity (%) No metal ion added (psicose 3-epimerase [2]): 10.2%
Relative activity (%) Mn^2+ added (psicose 3-epimerase [2]): 15.4%

Molecule: O=C(CO)[C@@H](O)[C@H](O)CO [D-Xylulose]
Relative activity (%) No metal ion added (psicose 3-epimerase [2]): 5.8%
Relative activity (%) Mn^2+ added (psicose 3-epimerase [2]): 12.4%

Molecule: [Al+3] [Al^3+]
Relative activity (%) (psicose 3-epimerase [1]): 100%

Molecule: O=C(CO)[C@H](O)[C@H](O)[C@H](O)CO [D-Psicose]
metabolism in the human body [3]: almost non-metabolizable
effect on activity of lipogenic enzymes (lipogenic enzymes): suppressing the activity of lipogenic enzymes
Relative activity (%) No metal ion added (psicose 3-epimerase [2]): 100%
Relative activity (%) Mn^2+ added (psicose 3-epimerase [2]): 274%
affinity of the psicose 3-epimerase for substrate (psicose 3-epimerase [2]; D-psicose compared with D-tagatose, in words): higher affinity

Molecule: O=C(CO)[C@@H](O)[C@H](O)[C@H](O)CO [D-Fructose]
Relative activity (%) No metal ion added (psicose 3-epimerase [2]): 37.9%
Relative activity (%) Mn^2+ added (psicose 3-epimerase [2]): 139%

Molecule: O=C(CO)[C@H](O)[C@H](O)COP(=O)(O)O [D-Ribulose-5-phosphate]
Relative activity (%) No metal ion added (psicose 3-epimerase [2]): 0.0%
Relative activity (%) Mn^2+ added (psicose 3-epimerase [2]): 0.0%

Second part, led by results:

Relative activity (%) (psicose 3-epimerase [1]): 100%
Molecule: [Mg+2] [Mg^2+]

Relative activity (%) No metal ion added (psicose 3-epimerase [2]): 0.8%
Relative activity (%) Mn^2+ added (psicose 3-epimerase [2]): 1.7%
Molecule: O=C(CO)[C@H](O)[C@@H](O)[C@H](O)CO [D-Sorbose]

Relative activity (%) (psicose 3-epimerase [1]): 274%
effect of metal ion on enzyme activity (psicose 3-epimerase [1]): enhanced the enzyme activity
Molecule: [Mn+2] [Mn^2+]

Relative activity (%) (psicose 3-epimerase [1]): 121%
Relative activity (%) (psicose 3-epimerase [1]; listed as Fe^2+): 139%
Molecule: [Fe+3] [Fe^3+]

Relative activity (%) (psicose 3-epimerase [1]): 20.0%
Molecule: O=C(O)CN(CCN(CC(=O)O)CC(=O)O)CC(=O)O [EDTA]

Relative activity (%) (psicose 3-epimerase [1]): 93.3%
Molecule: [Mo+2] [Mo^2+]

Relative activity (%) No metal ion added (psicose 3-epimerase [2]): 65.5%
Relative activity (%) Mn^2+ added (psicose 3-epimerase [2]): 92.3%
Molecule: O=C(CO)[C@@H](O)[C@@H](O)[C@H](O)CO [D-Tagatose]

Relative activity (%) (psicose 3-epimerase [1]): 4.4%
effect of metal ion on enzyme activity (psicose 3-epimerase [1]): suppressed the enzyme activity
Molecule: [Zn+2] [Zn^2+]

superiority to the yield achievable by conventional methods of producing D-psicose [4]: approximately 20%
D-Psicose ([6]; reaction time 0 min): 0 g/L
D-Psicose ([6]; reaction time 10 min): 93 g/L
D-Psicose ([6]; reaction time 30 min): 155 g/L
D-Psicose ([6]; reaction time 60 min): 180 g/L
D-Psicose ([6]; reaction time 120 min): 211 g/L
D-Psicose ([6]; reaction time 180 min): 210 g/L
D-Psicose ([6]; reaction time 240 min): 210 g/L
D-Psicose ([6]; reaction time 300 min): 209 g/L
B1: psicose 3-epimerase: enzyme (SEQ ID NO:1) from Agrobacterium tumefaciens ATCC33970 that converts D-fructose to D-psicose; monomer, metalloenzyme (protein, listed as Agrobacterium tumefaciens)
chain: T1 sequence (A9CH28 with tags, fused parts or gaps)
optimal pH ([5]; Mn^2+ ions added): 7.0
optimal temperature ([5]; Mn^2+ ions added): 60 °C
optimal pH ([5]; metal ions not added): 7.5
optimal temperature ([5]; metal ions not added): 50 °C
D-psicose conversion yield ([6]; reaction time 120 minutes): 30.2%
